The structures appear in SMILES notation.

The values that follow come from patent publication US11267812B2 (Mirati Therapeutics, Inc., priority 2016, dated 2022).

The experiment deals with Phospho-ERK in NCI-H358 cells expressing KRas G12C. Put plainly: Cellular inhibition of KRas G12C by Phospho-ERK measurement in NCI-H358 cells. Format: cell-based. Conditions: Homo sapiens; NCI-H358 cells, 3 hours compound treatment; read-out: IC50 (pERK(Thr202/Tyr204) normalized with GAPDH). The protocol:
The cellular inhibition of KRAs G12C by exemplary compounds of the present invention was determined by measuring the amount of a downstream marker of KRas activity, phosphorylated ERK (“Phospho-ERK”).
NCI-H358 cells (ATCC CRL-5807) express KRas G12C and were grown in RPMI medium supplemented with 10% fetal bovine serum, penicillin/streptomycin and 10 mM HEPES. Cells were plated in poly-D-Lysine coated 96-well plates at a concentration of 50,000 cells/well and allowed to attach for 8-12 hours. Diluted compounds were then added at a final concentration of 0.5% DMSO. After 3 hours, the medium was removed, 150 μL of 4% formaldehyde was added and the plates were incubated for 20 minutes. The plates were washed with PBS, and permeabilized using 150 μL of ice cold 100% methanol for 10 minutes. Non-specific antibody binding to the plates was blocked using 100 μL Licor Blocking Buffer (Li-Cor Biotechnology, Lincoln Nebr.) for 1 hour at room temperature. Positive control samples and samples lacking cells were parallel processed with test samples as standards.
The amount Phospho-ERK was determined using an antibody specific for the phosphorylated form of ERK and compared to the amount of GAPDH. Primary antibodies used for detection were added as follows: Phospho-ERK (Cell Signaling cs9101) diluted 1:500 and GAPDH (Millipore MAB374) diluted 1:5000 in Licor block+0.05% Tween 20. The plates were incubated for 2 hours at room temperature. The plates were washed with PBS+0.05% Tween 20.
Secondary antibodies used to visualize primary antibodies were added as follows: Anti-rabbit-680 diluted 1:1000 and Anti-mouse-800 diluted 1:1000 in Licor Block+0.050 Tween 20 and incubated for 1 hour at room temperature. The plates were washed with PBS+0.05% o Tween 20. A100 L aliquot of PBS was added to each well and the plates were read on a LICOR AERIUS plate reader.
The pERK(Thr202/Tyr204) signal was normalized with the GAPDH signal and percent of DMSO control values were calculated. IC50 values were generated using a 4 parameter fit of the dose response curve. Key: “A”≥0.001-≤1 μM; “B”[…] and ND=not determined.
Consider `C=CC(=O)N1CCN(c2nc(OC[C@@H]3C[C@@H](OC)CN3C)nc3c2CCN(c2cccc4ccccc24)C3)CC1CC#N` (stereo partly drawn) [Example 268, 2-(1-acryloyl-4-(2-(((2S,4R)-4-methoxy-1-methylpyrrolidin-2-yl)methoxy)-7-(naphthalen-1-yl)-5,6,7,8-tetrahydropyrido[3,4-d]pyrimidin-4-yl)piperazin-2-yl)acetonitrile], for which the IC50 was 0.001 to 1 µM.
For `C=CC(=O)N1CCN(c2nc(OCCCN3CCOCC3)nc3c2CCN(c2cc(O)ccc2OC(F)(F)F)C3)CC1` [Example 90, 1-(4-(7-(5-hydroxy-2-(trifluoromethoxy)phenyl)-2-(3-morpholinopropoxy)-5,6,7,8-tetrahydropyrido[3,4-d]pyrimidin-4-yl)piperazin-1-yl)prop-2-en-1-one], the IC50 was in the range of 0.001 to 1 µM.
For `C=CC(=O)N1CCN(c2nc(OCCCN3C[C@@H]4C[C@H]3CO4)nc3c2CCN(c2cc(O)cc4ccccc24)C3)CC1` [Example 104, 1-(4-(2-(3-((1S,4S)-2-oxa-5-azabicyclo[2.2.1]heptan-5-yl)propoxy)-7-(3-hydroxynaphthalen-1-yl)-5,6,7,8-tetrahydropyrido[3,4-d]pyrimidin-4-yl)piperazin-1-yl)prop-2-en-1-one], the IC50 lay in the range of 0.001 to 1 µM.
Consider `C=CC(=O)N1CCN(c2nc(OC[C@@H]3CCN(C)C3)nc3c2CCN(c2cc(O)cc4ccccc24)C3)CC1CC#N` (stereo partly drawn) [Example 179, 2-[4-[7-(3-hydroxy-1-naphthyl)-2-[[(3R)-1-methylpyrrolidin-3-yl]methoxy]-6,8-dihydro-5H-pyrido[3,4-d]pyrimidin-4-yl]-1-prop-2-enoyl-piperazin-2-yl]acetonitrile], for which the IC50 was in the range of 0.001 to 1 µM.
Under `C=CC(=O)N1CCN(c2nc(OC[C@@H]3CCCN3C)nc3c2CCN(c2cc(O)cc4ccccc24)C3)C(CO)C1` (stereo partly drawn) [Example 169, 1-[3-(hydroxymethyl)-4-[7-(3-hydroxy-1-naphthyl)-2-[[(2S)-1-methylpyrrolidin-2-yl]methoxy]-6,8-dihydro-5H-pyrido[3,4-d]pyrimidin-4-yl]piperazin-1-yl]prop-2-en-1-one] stands 0.001 to 1 µM; under `C=CC(=O)N1CCN(c2nc(OC[C@@H]3CCCN3C)nc3c2CCN(c2cccc(F)c2C(F)(F)F)C3)CC1CC#N` (stereo partly drawn) [Example 230, 2-(1-acryloyl-4-(7-(3-fluoro-2-(trifluoromethyl)phenyl)-2-(((S)-1-methylpyrrolidin-2-yl)methoxy)-5,6,7,8-tetrahydropyrido[3,4-d]pyrimidin-4-yl)piperazin-2-yl)acetonitrile], 0.001 to 1 µM.
Regarding `C=CC(=O)N1CCN(c2nc(OCC(CO)N(C)C)nc3c2CCN(c2cc(O)cc4ccccc24)C3)CC1` (stereo not drawn) [Example 55, 1-(4-(2-(2-(dimethylamino)-3-hydroxypropoxy)-7-(3-hydroxynaphthalen-1-yl)-5,6,7,8-tetrahydropyrido[3,4-d]pyrimidin-4-yl)piperazin-1-yl)prop-2-en-1-one], the IC50 was 0.001 to 1 µM.
As to `C=CC(=O)N1CCN(c2nc(OC[C@H]3CCCN3C)nc3c2CCN(c2cc(O)cc4ccccc24)C3)[C@@H](C)C1` [Example 203, 1-((S)-4-(7-(3-hydroxynaphthalen-1-yl)-2-(((R)-1-methylpyrrolidin-2-yl)methoxy)-5,6,7,8-tetrahydropyrido[3,4-d]pyrimidin-4-yl)-3-methylpiperazin-1-yl)prop-2-en-1-one], the IC50 lay in the range of 0.001 to 1 µM.
Then `C=CC(=O)N1CCN(c2nc(OCCCN3CCCC3)nc3c2CCN(c2cc(O)cc4ccccc24)C3)CC1` [Example 39, 1-(4-(7-(3-hydroxynaphthalen-1-yl)-2-(3-(pyrrolidin-1-yl)propoxy)-5,6,7,8-tetrahydropyrido[3,4-d]pyrimidin-4-yl)piperazin-1-yl)prop-2-en-1-one], with 0.001 to 1 µM.
Regarding `C=CC(=O)N1CCN(c2nc(OC[C@@H]3CCCN3C)nc3c2CCN(c2ccccc2C(F)(F)F)C3)C[C@@H]1CC#N` [Example 237, 2-((S)-1-acryloyl-4-(2-(((S)-1-methylpyrrolidin-2-yl)methoxy)-7-(2-(trifluoromethyl)phenyl)-5,6,7,8-tetrahydropyrido[3,4-d]pyrimidin-4-yl)piperazin-2-yl)acetonitrile 2,2,2-trifluoroacetate], the IC50 fell in the range of 0.001 to 1 µM.
In the case of `C=CC(=O)N1CCN(c2nc(OC[C@@H]3CCCN3C)nc3c2CCN(c2cccc4cc(F)ccc24)C3)CC1CC#N` (stereo partly drawn) [Example 259, 2-[4-[7-(6-fluoro-1-naphthyl)-2-[[(2S)-1-methylpyrrolidin-2-yl]methoxy]-6,8-dihydro-5H-pyrido[3,4-d]pyrimidin-4-yl]-1-prop-2-enoyl-piperazin-2-yl]acetonitrile], the IC50 lay within 0.001 to 1 µM.
For the compound `C=CC(=O)N1CCN(c2nc(OC(C)CN(C)C)nc3c2CCN(c2cc(O)cc4ccccc24)C3)CC1` (stereo not drawn) [Example 11, 1-(4-(2-((1-(dimethylamino)propan-2-yl)oxy)-7-(3-hydroxynaphthalen-1-yl)-5,6,7,8-tetrahydropyrido[3,4-d]pyrimidin-4-yl)piperazin-1-yl)prop-2-en-1-one], the IC50 was 0.001 to 1 µM.
For the compound `C=CC(=O)N1CCN(c2nc(OC[C@@H]3CN(C)CCO3)nc3c2CCN(c2cccc4ccccc24)C3)CC1CC#N` (stereo partly drawn) [Example 271, 2-(1-acryloyl-4-(2-(((S)-4-methylmorpholin-2-yl)methoxy)-7-(naphthalen-1-yl)-5,6,7,8-tetrahydropyrido[3,4-d]pyrimidin-4-yl)piperazin-2-yl)acetonitrile], the IC50 lay in the range of 0.001 to 1 µM.
On to `C=CC(=O)N1CCN(c2nc(OC[C@@H]3CCCCN3C)nc3c2CCN(c2cc(O)cc4ccccc24)C3)CC1` [Example 196, (S)-1-(4-(7-(3-hydroxynaphthalen-1-yl)-2-((1-methylpiperidin-2-yl)methoxy)-5,6,7,8-tetrahydropyrido[3,4-d]pyrimidin-4-yl)piperazin-1-yl)prop-2-en-1-one], for which the IC50 was in the range of 0.001 to 1 µM.
Take `C=CC(=O)N1CCN(c2nc(OC[C@@H]3CCCN3CCOC)nc3c2CCN(c2cc(O)cc4ccccc24)C3)CC1` [Example 144, (S)-1-(4-(7-(3-hydroxynaphthalen-1-yl)-2-((1-(2-methoxyethyl)pyrrolidin-2-yl)methoxy)-5,6,7,8-tetrahydropyrido[3,4-d]pyrimidin-4-yl)piperazin-1-yl)prop-2-en-1-one]: the IC50 was in the range of 0.001 to 1 µM.
Take `C=CC(=O)N1CCN(c2nc(OCCN3C[C@@H]4CC[C@H]3C4)nc3c2CCN(c2cc(O)cc4ccccc24)C3)CC1` [Example 77, 1-(4-(2-(2-((1S,4R)-2-azabicyclo[2.2.1]heptan-2-yl)ethoxy)-7-(3-hydroxynaphthalen-1-yl)-5,6,7,8-tetrahydropyrido[3,4-d]pyrimidin-4-yl)piperazin-1-yl)prop-2-en-1-one]: the IC50 was 0.001 to 1 µM.
For `C=CC(=O)N1CCN(c2nc(OC[C@@H]3CCCN3C)nc3c2CCN(c2cncc4ccccc24)C3)CC1CC#N` (stereo partly drawn) [Example 260, 2-[4-[7-(4-isoquinolyl)-2-[[(2S)-1-methylpyrrolidin-2-yl]methoxy]-6,8-dihydro-5H-pyrido[3,4-d]pyrimidin-4-yl]-1-prop-2-enoyl-piperazin-2-yl]acetonitrile], the IC50 lay in the range of 0.001 to 1 µM.
For the compound `C=CC(=O)N1CCN(c2nc(O[C@H](C)CN3CC[C@H](OC)C3)nc3c2CCN(c2cc(O)cc4ccccc24)C3)CC1` [Example 64, 1-(4-(7-(3-hydroxynaphthalen-1-yl)-2-(((R)-1-((S)-3-methoxypyrrolidin-1-yl)propan-2-yl)oxy)-5,6,7,8-tetrahydropyrido[3,4-d]pyrimidin-4-yl)piperazin-1-yl)prop-2-en-1-one], the IC50 was 0.001 to 1 µM.
Under `CN1CCC[C@H]1COc1nc2c(c(N3CCN(C(=O)/C=C/CN4CCCCC4)[C@@H](CC#N)C3)n1)CCN(c1cccc3ccccc13)C2` [Example 236, 2-((S)-4-(2-(((S)-1-methylpyrrolidin-2-yl)methoxy)-7-(naphthalen-1-yl)-5,6,7,8-tetrahydropyrido[3,4-d]pyrimidin-4-yl)-1-(E-4-(piperidin-1-yl)but-2-enoyl)piperazin-2-yl)acetonitrile] stands 0.001 to 1 µM.
Consider `C=CC(=O)N1CCN(c2nc(OC[C@@H]3CCCN3C)nc3c2CCN(c2cnccc2C(F)(F)F)C3)CC1CC#N` (stereo partly drawn) [Example 212, 2-(1-acryloyl-4-(2-(((S)-1-methylpyrrolidin-2-yl)methoxy)-7-(4-(trifluoromethyl)pyridin-3-yl)-5,6,7,8-tetrahydropyrido[3,4-d]pyrimidin-4-yl)piperazin-2-yl)acetonitrile], for which the IC50 lay in the range of 0.001 to 1 µM.
For `C=CC(=O)N1CCN(c2nc(OC[C@@H]3COCCN3C)nc3c2CCN(c2cccc4ccccc24)C3)CC1CC#N` (stereo partly drawn) [Example 272, 2-(1-acryloyl-4-(2-(((S)-4-methylmorpholin-3-yl)methoxy)-7-(naphthalen-1-yl)-5,6,7,8-tetrahydropyrido[3,4-d]pyrimidin-4-yl)piperazin-2-yl)acetonitrile], the IC50 was 0.001 to 1 µM.
